Measured values as given in ChEMBL document CHEMBL1151006, “Synthesis of bicyclic thiazolidine PAF antagonists” (Bioorg Med Chem Lett, 1993).

Assay: Half life in rats after intravenous administration
Assay type: ADME, organism-based
Details: rat, in vivo

half-life [min] | SMILES
60 | O=C(c1ccccc1)c1cccc(NC(=O)[C@@H]2CSC(c3cccnc3)N2)c1 (some centres not stated)
42 | O=C(c1ccccc1)c1cccc(NC(=O)[C@H]2OC(=O)N3[C@@H](c4cccnc4)SC[C@@H]23)c1
